Measurements taken from patent publication US20230076310A1, “COMPOSITION USING NOVEL LACTOBACILLUS PLANTARUM KC3 STRAIN FOR PREVENTION OR TREATMENT OF IMMUNE IMPAIRMENT, RESPIRATORY INFLAMMATORY DISEASE, ALLERGY, AND ASTHMA AND USE THEREOF” (KT&G CORPORATION, priority 2020, published 2023).
Bridge positions count the residues as written; N and C are the ends. Square brackets hold non-standard residues; d marks the D form. Peptide text beside a SMILES is read from it. * marks the point of attachment. Ileψ(thiazoline)Cys = CC[C@H](C)[C@H](N)C1=N[C@H](C(=O)*)CS1; dOrn = NCCC[C@@H](N)C(=O)O

Tested on: Lactobacillus plantarum KC3
Experiment: Antibiotics resistance experiment (antibiotic strips on LSM solid medium)
Assay type: cell-based
Conditions: antibiotic strip on KC3 lawn, 37° C. for 24 hours
Procedure: In order to confirm antibiotics resistance level of the new lactic acid bacteria from the of the Lactobacillus plantarum KC3 the present disclosure, an experiment was performed as follows by applying the method described in the document ([1] Mathur, S. and R. Singh, Antibiotic resistance in food lactic acid bacteria—A review. Int. J. Food Microbiol 2005 105: 281-295); [2] European Food Safety Authority, Guidance on the assessment of bacterial susceptibility to antimicrobials of human and veterinary importance: EFSA Panel on Additives and Products or Substances used in Animal Feed (FEEDAP). The EFSA Journal 2012 2740:1-10. doi:10.2903/j.efsa.2012.2740).
To measure the antibiotics resistance level of the strain, an MIC test was carried out. Lactic acid bacteria that were inoculated into an MRS medium (DF0881-17-5, Difco) and cultured at 37° C. for 18 hours were spread on an LSM solid medium (90% iso-sensitest broth (CM0473, Oxoid), 10% MRS medium (DF0881-17-5, Difco), and 1.5% agar (214010, Difco)). Strips for each type of antibiotics, such as Amikacin (92018, Liofilchem srl), Gentamycin (92009, Liofilchem srl), Kanamycin (92034, Liofilchem srl), Streptomycin (92112, Liofilchem srl), Penicillin-G (92102, Liofilchem srl), Oxacillin (92015, Liofilchem srl), Ampicillin (920030, Liofilchem srl), Bacitracin (92019, Liofilchem srl), Rifampicin (92001, Liofilchem srl), Polymyxin B (92004, Liofilchem srl), Chloramphenico I (92075, Liofilchem srl), Vancomycin (92057, Liofilchem srl), and the like, were put on the medium, and the bacteria were grown at 37° C. for 24 hours.
In Table 4, R indicates resistance and represents that the size of an inhibition zone is about 0 mm; IS indicates medium resistance and represents that the size of an inhibition zone is in a range of about 1 mm to about 5 mm; and S indicates […] and represents that the size of an inhibition zone is greater than about 5 mm.

Compound	Antibiotic resistance (class)	Antibiotic resistance, size of inhibition zone
CC1(C)S[C@@H]2[C@H](NC(=O)Cc3ccccc3)C(=O)N2[C@H]1C(=O)O [Penicillin-G]	IS (IS indicates medium resistance and represents that the size of an inhibition zone is in a range of about 1 mm to about 5 mm)	(5 mm)
NC[C@H]1O[C@H](O[C@H]2[C@H](O)[C@@H](O[C@H]3O[C@H](CO)[C@@H](O)[C@H](N)[C@H]3O)[C@H](N)C[C@@H]2N)[C@H](O)[C@@H](O)[C@@H]1O [Kanamycin]	R (R indicates resistance and represents that the size of an inhibition zone is about 0 mm)	(0 mm)
CO[C@H]1/C=C/O[C@@]2(C)Oc3c(C)c(O)c4c(O)c(c(/C=N/N5CCN(C)CC5)c(O)c4c3C2=O)NC(=O)/C(C)=C\C=C\[C@H](C)[C@H](O)[C@@H](C)[C@@H](O)[C@@H](C)[C@H](OC(C)=O)[C@@H]1C [Rifampicin]	S (S indicates resistance and represents that the size of an inhibition zone is greater than about 5 mm)	(7 mm)
CCC[C@@H]1C[C@@H](C(=O)N[C@@H]([C@H]2O[C@H](SC)[C@H](O)[C@@H](O)[C@H]2O)[C@@H](C)O)N(C)C1 [Lincomycin]	S (S indicates resistance and represents that the size of an inhibition zone is greater than about 5 mm)	(10 mm)
CC1(C)S[C@@H]2[C@H](NC(=O)[C@H](N)c3ccccc3)C(=O)N2[C@H]1C(=O)O [Ampicillin]	S (S indicates resistance and represents that the size of an inhibition zone is greater than about 5 mm)	(14 mm)
CC[C@H](C)[C@H](N)C1=N[C@H](C(=O)N[C@@H](CC(C)C)C(=O)N[C@H](CCC(=O)O)C(=O)N[C@H](C(=O)N[C@H]2CCCCNC(=O)[C@H](CC(N)=O)NC(=O)[C@@H](CC(=O)O)NC(=O)[C@H](Cc3cnc[nH]3)NC(=O)[C@@H](Cc3ccccc3)NC(=O)[C@H]([C@@H](C)CC)NC(=O)[C@@H](CCCN)NC2=O)[C@@H](C)CC)CS1 [Bacitracin] ({Ileψ(thiazoline)Cys}-L[dE]IK[dOrn]I[dF]H[dD]N; lactam 4-C)	S (S indicates resistance and represents that the size of an inhibition zone is greater than about 5 mm)	(7 mm)
CN[C@H](CC(C)C)C(=O)N[C@H]1C(=O)N[C@@H](CC(N)=O)C(=O)N[C@H]2C(=O)N[C@H]3C(=O)N[C@H](C(=O)N[C@H](C(=O)O)c4cc(O)cc(O)c4-c4cc3ccc4O)[C@H](O)c3ccc(c(Cl)c3)Oc3cc2cc(c3O[C@@H]2O[C@H](CO)[C@@H](O)[C@H](O)[C@H]2O[C@H]2C[C@](C)(N)[C@H](O)[C@H](C)O2)Oc2ccc(cc2Cl)[C@H]1O [Vancomycin]	R (R indicates resistance and represents that the size of an inhibition zone is about 0 mm)	(0 mm)
Polymyxin B	R (R indicates resistance and represents that the size of an inhibition zone is about 0 mm)	(0 mm)
CO[C@@H]1[C@@H](OC(N)=O)[C@@H](O)[C@H](Oc2ccc3c(O)c(NC(=O)c4ccc(O)c(CC=C(C)C)c4)c(=O)oc3c2C)OC1(C)C [Novabiocin]	S (S indicates resistance and represents that the size of an inhibition zone is greater than about 5 mm)	(7 mm)
Gentamycin	IS (IS indicates medium resistance and represents that the size of an inhibition zone is in a range of about 1 mm to about 5 mm)	(3 mm)
